Data reported in paper PMC11249646, “Small-Molecule Disruptors of the Interaction between Calcium- and Integrin-Binding Protein 1 and Integrin αIIbβ3 as Novel Antiplatelet Agents” (ACS Pharmacology & Translational Science, 2024).
Like-named read-outs stand apart in the source and are kept apart here.

Biological target: T1, CIB1 and αIIb interaction (CIB1-GST : F-αIIb peptide) (Homo sapiens, UniProt Q99828)
T1 construct: made in house; host or cells: BL-21 plus RIL cells (E. coli)
T1 sequence (Q99828 1-191): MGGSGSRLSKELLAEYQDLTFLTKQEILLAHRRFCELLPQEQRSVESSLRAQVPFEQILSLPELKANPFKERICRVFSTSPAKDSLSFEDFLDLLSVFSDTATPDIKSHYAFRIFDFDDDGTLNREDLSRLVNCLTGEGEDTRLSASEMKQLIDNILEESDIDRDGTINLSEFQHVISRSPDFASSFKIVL
Assay: FP assay, 1536-well qHTS format (primary and confirmatory screen)
Type: binding
Details: for Efficacy (%): negative = inhibition; for IC50: read-out: IC50; for Curve Class: negative sign = inhibitory curve

[1] = qHTS primary screen hits, Table S2
[2] = qHTS primary screen hits, Table S2, several classes where COUNT > 1
[3] = qHTS primary screen of LOPAC/NPACT libraries

SMILES	Efficacy (%) [1] [%]	Curve Class [2]	IC50 [1] [µM]	also measured
Cc1cc(S(=O)(=O)Nc2cnccc2C(=O)Nc2nc(-c3ccccc3)cs2)c(C)o1.O=C(O)C(F)(F)F [NCGC00345029-02]	–	–	–	Efficacy (%) (qHTS FP screen hits, Table S2): -46%; IC50 (qHTS FP screen hits, Table S2): 38.1 µM
O=C(Nc1nc(-c2ccccc2)cs1)c1ccncc1NS(=O)(=O)c1ccc(F)cc1Cl.O=C(O)C(F)(F)F [NCGC00345105-01]	-42	-2.2	79.4	–
Fc1cc(Nc2nc(-c3ccncc3)nc3ccccc23)ccc1N1CCNCC1.O=C(O)C(F)(F)F [NCGC00345204-01]	-36	-2.4	89.1	–
CC1(C)CCC(CN2CCN(c3ccc(C(=O)NS(=O)(=O)c4ccc(NCC5CCOCC5)c([N+](=O)[O-])c4)c(Oc4cnc5[nH]ccc5c4)c3)CC2)=C(c2ccc(Cl)cc2)C1 [NCGC00345789-10]	–	–	–	Efficacy (%) [3]: -26%; Curve Class [3]: -2.4; IC50 [3]: 39.8 µM
COc1cc2c(cc1OC)CN(CCc1ccc(NC(=O)c3cc(OC)c(OC)cc3NC(=O)c3cnc4ccccc4c3)cc1)CC2 [NCGC00346448-01]	-30	-2.4	42.9	–
Cc1cc(N2CCOCC2)cc2[nH]c(-c3c(NC[C@@H](O)c4cccc(Cl)c4)cc[nH]c3=O)nc12 [NCGC00346460-05]	–	–	–	Efficacy (%) [3]: -28%; Curve Class [3]: -1.4; IC50 [3]: 17.8 µM
C=CC(=O)Nc1cccc(Oc2nc(Nc3ccc(N4CCN(C)CC4)cc3)ncc2Cl)c1 [NCGC00346496-04]	–	–	–	Efficacy (%) [3]: -28%; Curve Class [3]: -2.4; IC50 [3]: 44.7 µM
C=CC(=O)Nc1cccc(Sc2nc(Nc3ccc(N4CCN(C)CC4)cc3)ncc2Cl)c1 [NCGC00346497-02]	–	–	–	Efficacy (%) [3]: -29%; Curve Class [3]: -2.4; IC50 [3]: 20 µM
C=C1C(=O)[C@@]23C(CC[C@@H]1[C@H]2O)[C@@]12CO[C@]3(O)[C@@H](O)[C@@H]1C(C)(C)CC[C@@H]2O (stereo partly drawn) [NCGC00346595-01]	–	–	–	Efficacy (%) (qHTS FP screen hits, Table S2): -48%; IC50 (qHTS FP screen hits, Table S2): 33.3 µM
CC(C)(O)CC(=O)NCCn1ccc2ncnc(Nc3ccc(Oc4cccc(C(F)(F)F)c4)c(Cl)c3)c21 [NCGC00346699-06]	–	–	–	Efficacy (%) [3]: -30%; Curve Class [3]: -2.4; IC50 [3]: 100 µM
COc1cccc(CNc2ccc(S(=O)(=O)Nc3nc(-c4ccccc4)cs3)cc2)c1O.O=C(O)C(F)(F)F [NCGC00346865-01]	-34	–	50.1	Curve Class [1]: -2.4
Cc1c(-c2cccc3c(CCCOc4cccc5ccccc45)c(C(=O)O)n(Cc4cccnc4)c23)c(COc2ccc(N3CCN(S(=O)(=O)N(C)C)CC3)cc2)nn1C [NCGC00347282-01]	-34	-3	30.4	–
Cc1cc(OCCCc2c(C(=O)O)n(Cc3cccnc3)c3c(-c4c(COc5ccc(N6CCN(S(C)(=O)=O)CC6)cc5)nn(C)c4C)cccc23)cc(C)c1Cl [NCGC00347283-01]	-26	–	34.1	Curve Class [1]: -2.4
COc1ccc(OC)c(-n2c3c(cc(-c4nnn(-c5ccc(Cl)cc5)n4)c2=O)C(=O)CC(C)(C)C3)c1.O=C(O)C(F)(F)F [NCGC00347300-01]	-41	–	89.1	Curve Class [1]: -3
CC(=O)O[C@@H](CO[C@@H]1O[C@H](CO)[C@H](O)[C@H](O)[C@H]1O)[C@]1(C)C=C2CC[C@@H]3C(C)(C)[C@@H](O)CC[C@@]3(C)[C@@H]2CC1 [NCGC00347395-02]	–	–	–	Efficacy (%) [3]: -23%; Curve Class [3]: -2.4; IC50 [3]: 15.8 µM
Cc1c(C)n(Cc2ccc(-c3ccccc3C(=O)O)cc2)c2ccc(C(=O)N[C@@H](C)c3ccc([N+](=O)[O-])cc3)cc12 [NCGC00347955-01]	–	–	–	Efficacy (%) (qHTS FP screen hits, Table S2): -32%; IC50 (qHTS FP screen hits, Table S2): 23.5 µM
O=C(Nc1ccc(S(=O)(=O)N2CCOCC2)cc1)c1ccc(N2CCc3ccccc3C2)cc1 [NCGC00348032-01]	-34	-2.4	50.1	–
O=C(Nc1ccc(S(=O)(=O)N2CCOCC2)cc1)c1ccc(CN2CCCc3ccccc32)cc1.O=C(O)C(F)(F)F [NCGC00348355-01]	-15	-2.4	50.1	–
CCC(C)(C)n1nnnc1C(c1cc2ccc(OC)cc2[nH]c1=O)N1CCc2ccccc2C1.O=C(O)C(F)(F)F (stereo not drawn) [NCGC00350929-01]	-29	-2.4	56.2	–
CC1=C(C(=O)Nc2ccc(C(=O)O)cc2)C(c2ccccc2Cl)N=C(Nc2nc3ccccc3o2)N1.O=C(O)C(F)(F)F (stereo not drawn) [NCGC00351025-01]	-29	-2.4	50.1	–
O=C(O)C(F)(F)F.O=C(c1ccc2ccccc2c1)c1no[n+]([O-])c1C(=O)c1ccc2ccccc2c1 [NCGC00351316-01]	-35	–	44.7	Curve Class [1]: -2.2
C#CCOC(=O)NCCCC[C@H](N)C(=O)O [NCGC00351539-01]	-24	-2.4	56.2	–

SMILES	Efficacy (%) [1] [%]	Curve Class [2]	IC50 [1] [µM]	also measured
Cc1ccccc1C(=O)N1CCc2cc(-c3nc(NC(=O)Cc4cccc(OCCOCCOCCN)c4)sc3C)ccc21.O=C(O)C(F)(F)F [NCGC00351617-01]	-37	-2.4	50.1	–
CCCCn1nc(-c2ccccc2)c2nc3ccccc3nc21.O=C(O)C(F)(F)F [NCGC00351644-02]	-127	-1.1	25.1	–
O=C(O)C(F)(F)F.O=C(O)c1csc(-n2nc(-c3ccc(F)c(Cc4ccccc4)c3)cc2O)n1 [NCGC00356005-01]	-47	-2.2	79.4	–
CCOC(=O)OC(C)OC(=O)c1csc(-n2nc(-c3ccc(F)c(F)c3)cc2O)n1.O=C(O)C(F)(F)F (stereo not drawn) [NCGC00356024-01]	-35	-2.4	79.4	–
O=C(O)C(F)(F)F.OC(CN1CCCCC1)Cn1c2ccc(Cl)cc2c2cc(Cl)ccc21 (stereo not drawn) [NCGC00356030-01]	-35	–	79.4	Curve Class [1]: -3
Cn1ccc(=Nc2ccc(NC(=O)c3ccc(/N=c4/ccn(C)c5ccc([N+](=O)[O-])cc45)cc3)cc2)cc1.O=C(O)C(F)(F)F [NCGC00356208-01]	-35	-2.4	56.2	–
Cl.O=C(O)c1csc(-n2nc(-c3ccc(F)c(F)c3)c(Cc3ccccc3)c2O)n1 [NCGC00356264-02]	-25	-2.4	79.4	–
Cl.NS(=O)(=O)c1cccc(Cc2c(-c3ccc(F)c(F)c3)nn(-c3nc(C(=O)O)cs3)c2O)c1 [NCGC00356269-01]	-17	-2.4	50.1	–
CC(C)(C)OC(=O)c1csc(-n2nc(-c3ccc(F)c(F)c3)c(-c3ccccc3)c2O)n1.O=C(O)C(F)(F)F [NCGC00356364-01]	-24	–	56.2	Curve Class [1]: -2.4
CCOC(=O)c1csc(-n2nc(-c3ccc(F)c(F)c3)cc2O)n1 [NCGC00356457-01]	-29	–	56.2	Curve Class [1]: -2.4
Nc1ccc2nc3c(=O)n(CCc4ccccc4)c(=O)[nH]c3nc2c1.O=C(O)C(F)(F)F [NCGC00356558-01]	-62	-1.2	5	–
CNS(=O)(=O)c1ccc(Cc2c(-c3cccc(-c4ccccc4)c3)nn(-c3nc(C(=O)O)cs3)c2O)cc1.O=C(O)C(F)(F)F [NCGC00356637-01]	-55	-3	79.4	–
NS(=O)(=O)c1ccc(Cc2cn(-c3nc(C(=O)O)cs3)c3ncccc23)cc1 [NCGC00356703-01]	-41	-2.2	44.7	–
N#CCc1cc(-c2ccc(F)c(F)c2)nn1-c1nc(C(=O)O)cs1.O=C(O)C(F)(F)F [NCGC00356771-02]	-16	–	50.1	Curve Class [1]: -2.4
NS(=O)(=O)c1ccc(NCc2cn(-c3nc(C(=O)O)cs3)nc2-c2ccccc2)cc1.O=C(O)C(F)(F)F [NCGC00357525-01]	-25	-2.4	56.2	–
COc1ccc(S(=O)(=O)Nc2nc(-c3cccc([N+](=O)[O-])c3)cs2)cc1OC [NCGC00370730-07]	–	–	–	Efficacy (%) [3]: -22%; Curve Class [3]: -1.4; IC50 [3]: 22.4 µM
CC1=C(C(=O)OC2CCCCC2)C(c2ccc([N+](=O)[O-])cc2)C2=C(CC(C)(C)CC2=O)N1 (stereo not drawn) [NCGC00370923-11]	–	–	–	Efficacy (%) [3]: -104%; Curve Class [3]: -2.1; IC50 [3]: 17.8 µM
O=C(O)CCc1ccc(NCc2cccc3c2CCCN3CCOc2ccccc2)cc1F [NCGC00370998-03]	–	–	–	Efficacy (%) [3]: -32%; Curve Class [3]: -2.4; IC50 [3]: 44.7 µM
N#CSc1cc(SC#N)c(N)nc1N [NCGC00371134-01]	–	–	–	Efficacy (%) [3]: -31%; Curve Class [3]: -2.4; IC50 [3]: 14.1 µM
Nc1c(C(=O)Nc2ccc(F)cc2)sc2nc(-c3cccs3)ccc12.O=C(O)C(F)(F)F [NCGC00371815-01]	-31	-2.4	79.4	–
COc1cccc2nc3c(C(=O)NCCN(C)C)cccc3cc12.O=C(O)C(F)(F)F [NCGC00371843-01]	-37	-2.4	50.1	–
O=C(O)c1csc(-n2cc(Cc3ccc(CO)cc3)c(-c3cccc(-c4ccccc4)c3)n2)n1 [NCGC00371885-01]	-35	-2.4	44.7	–
